One series relates to calvaria. Briefly: Activity of inhibiting bone absorption (PTH-intensified calcium release from cultured calvaria). To be noted: Mus musculus, human PTH 1-34 1×10^-8 M, 96 hours, read-out: Inhibition Rate. In kind it is cell-based, dd mouse. The protocol:
A calvaria of a 5 to 6 day-old dd mouse was aseptically cut off, washed with Dulbecco's modified phosphate buffered saline not containing calcium and magnesium (manufactured by Gibco Oriental Co.) and separated along the sutura of its center. One half of the calvaria so separated was cultured in 1.5 ml of Dulbecco's modified Eagle medium (manufactured by Gibco Oriental Co.) containing 15% of thermally inactivated (at 56° C. for 20 minutes) horse serum and 2.5% of fetal calf serum. The test compound was dissolved in dimethyl sulfoxide, and 10 μl (final concentration: 1×10^-4 M or 1×10-^5 M) of the solution so prepared was added to the culture. Parathyroid hormone (human PTH 1-34, manufactured by Sigma Co.) was dissolved in 0.15 M sodium chloride solution (pH 3), and 3 μl (final concentration: 1×10^-8 M) of the solution so prepared was added to the culture. The cultivation was carried out for 96 hours at 37° C. in an atmosphere consisting of 95% of air and 5% of carbon dioxide. The culture medium was once replaced with a fresh one after 48 hours from the beginning of the cultivation. The concentration of dissolved calcium (i.e., absorption of bone) from the PTH-intensified bone was determined by measuring the quantity of calcium accumulated in the culture collected in 96 hours of cultivation, whereby the concentration of total calcium contained in the culture was measured with Calcium C-Test Wako (manufactured by Wako Pure Chemicals Co., Ltd.), and the inhibition rate was calculated therefrom in accordance with the equation set forth below. [formula] Cd : Total calcium concentration in the culture treated with both test compound and PTH
Cp : Total calcium concentration in the culture treated with PTH alone
Co Total calcium concentration in the culture treated with neither test compound nor PTH

Another series deals with dd-strain male mice. The experiment in a line: Acute toxicity test. In kind it is in vivo. The following applies: orally administered, mortality for 7 days. The protocol:
A test compound was orally administered to three dd-strain male mice weighting 20±1 g. The minimum lethal dose (MLD) was determined by observing the mortality for 7 days after the administration.

For series [1], the system named is cells obtained from the spleen of Balb/c mice sensitized with sheep red blood cells. Briefly: Plaque Forming Cell Assay (inhibition of antibody production). In kind it is cell-based, Balb/c strain male mice. To be noted: for inhibition at 100 µM / inhibition at 10 µM: Mus musculus, Erythrocyte, inhibition of antibody production, read-out: Inhibition Rate. The method, then: The method developed by Jerne [Science, 140, 405 (1963)] and Yamamoto, et al [Drugs. Exptl. Clin. res., 8, 5 (1982)] were modified for plaque forming cell assay.
That is, Balb/c strain male mice (age of 7 weeks, Charles River Japan Inc.) were sensitized with 1×10^8 sheep red blood cells (Bio Test Research Institute) and the spleen was extirpated on the sixth or seventh day. The cells obtained from the spleen were treated with ACT solution (Tris-ammonium chloride isotonic buffer) to remove red blood cells. The cells were washed three times with RPMI-1640 medium (Nissui Pharmaceutical Co. . The cells (1×10^7) were incubated in RPMI-1640 medium containing 10% calf fetal serum (Gibco Co.), 50 μg/ml streptomycin, 50 IU/ml of penicillin, 2-mercaptoethanol (5×10^-5 M), sheep red blood cells (5×10^6 cells) and a test compound dissolved in dimethyl sulfoxide supplied on a microculture plate (NUNC Co., 24 wells) in a carbon dioxide gas incubator (TABAI ESPEC CORP) at 37° C. for 5 days.
After completion of the incubation, the cells were transferred to a plastic test tube and centrifuged at 2000 rpm. After the supernatant was removed, the cells were resuspended in 1 ml of RPMI-1640 medium. The cell suspension was sealed in a Cunnigham chamber (Takahashi Giken Co.) together with sheep red blood cells and guinea pig complement (Cedarlane Research Institute) according to the method of Cunnigham [Immunology, 14, 599 (1968)] and incubated at 37° C. for 1 to 2 hours. Direct plaque forming cell (PFC) count was counted.
A rate of inhibiting antibody production by the test compound was determined by the following equation. [formula] A : PFC count in the absence of test compound (dimethylsulfoxide alone) B : PFC count in the presence of test compound

Here are results for eight compounds from patent publication US5219864A, “Thienopyridine derivatives” (Kyowa Hakko Kogyo Co., Ltd., priority 1991, dated 1993).

What is called inhibition is the relative decrease from the control value, in per cent.

Molecules are shown by their SMILES.

In the case of `O=C(Nc1ccncc1)c1c(O)c2ccsc2[nH]c1=O` [Compound 7, 6,7-Dihydro-4-hydroxy-6-oxo-N-(4-pyridyl)thieno[2,3-b]-pyridine-5-carboxamide], the inhibition at 10 µM in the series with calvaria was 32%. Also, the “minimum lethal dose (MLD)” value in the series on dd-strain male mice is recorded as greater than 300 mg/kg.

As for `O=C(Nc1cccnc1)c1c(O)c2sccc2[nH]c1=O` [Compound 1, 4,5-Dihydro-7-hydroxy-5-oxo-N-(3-pyridyl)thieno[3,2-b]-pyridine-6-carboxamide], in the series with calvaria, the inhibition at 100 µM was -1%.

With `CCCCn1c(=O)c(C(=O)Nc2ccncc2)c(O)c2sccc21` [Compound 3, 4-(n-Butyl)-4,5-dihydro-7-hydroxy-5-oxo-N-(4-pyridyl)thieno-[3,2-b]pyridine-6-carboxamide], in series [1] (10^-4 M), the “Direct PFC Count (mean ± S.E.M.)” value was 101 ± 76 and the inhibition at 100 µM came to 98%. Further, in series [1] (10^-5 M), the “Direct PFC Count (mean ± S.E.M.)” value was found to be 59 ± 38 and the inhibition at 10 µM is 98.8%. Besides, the inhibition at 10 µM with calvaria turned out to be 141%.

In the case of `CCCCn1c(=O)c(C(=O)Nc2ccncc2)c(O)c2ccsc21` [Compound 5, 7-(n-Butyl)-6,7-dihydro-4-hydroxy-6-oxo-N-(4-pyridyl)thieno-[2,3-b]pyridine-5-carboxamide], in series [1] (10^-4 M), the “Direct PFC Count (mean ± S.E.M.)” value is 109 ± 77 and the inhibition at 100 µM was determined as 97.8%. In series [1] (10^-5 M), the “Direct PFC Count (mean ± S.E.M.)” value is 227 ± 131 and the inhibition at 10 µM was determined as 95.5%. For the same compound, the inhibition at 10 µM with calvaria amounted to 53%.

For `O=C(Nc1ccncc1)c1c(O)c2sccc2[nH]c1=O` [Compound 2, 4,5-Dihydro-7-hydroxy-5-oxo-N-(4-pyridyl)thieno[3,2-b]-pyridine-6-carboxamide], the inhibition at 100 µM in the series on calvaria was found to be 51%.

Regarding `CCCCn1c(=O)c(C(=O)Nc2cccnc2)c(O)c2sccc21` [Compound 4, 4-(n-Butyl)-4,5-dihydro-7-hydroxy-5-oxo-N-(3-pyridyl)thieno-[3,2-b]pyridine-6-carboxamide], in series [1] (10^-4 M), the “Direct PFC Count (mean ± S.E.M.)” value amounted to 336 ± 124 and the inhibition at 100 µM amounted to 93.3%. Moreover, in series [1] (10^-5 M), the “Direct PFC Count (mean ± S.E.M.)” value came to 395 ± 52 and the inhibition at 10 µM was found to be 92.1%. The inhibition at 10 µM with calvaria was determined as 58%. Further, the “minimum lethal dose (MLD)” value in the series on dd-strain male mice is greater than 300 mg/kg.

Regarding `O=C(Nc1cccnc1)c1c(O)c2ccsc2[nH]c1=O` [Compound 8, 6,7-Dihydro-4-hydroxy-6-oxo-N-(3-pyridyl)thieno[2,3-b]-pyridine-5-carboxamide], the inhibition at 10 µM in the series on calvaria was 18%.

In the case of `CCCCn1c(=O)c(C(=O)Nc2cccnc2)c(O)c2ccsc21` [Compound 6, 7-(n-Butyl)-6,7-dihydro-4-hydroxy-6-oxo-N-(3-pyridyl)thieno-[2,3-b]pyridine-5-carboxamide], the “Direct PFC Count (mean ± S.E.M.)” value was found to be 42 ± 29 in series [1] (10^-4 M) and 59 ± 29 in series [1] (10^-5 M). Further, the inhibition at 100 µM in series [1] (10^-4 M) turned out to be 99.2%. Also, the inhibition at 10 µM in series [1] (10^-5 M) was 98.8%; with calvaria, 38%.
